What all share (test): ≥ marks a high value that may be exact or a test limit, other limits are often not marked, values filed in µg/mL are converted to µM
Test [1] has as its system Streptococcus pyogenes M1T1 5448.
A further test concerns Escherichia coli BL21.
The subject of test [2] is Pseudomonas aeruginosa PAO1.
For test [3], the system named is Staphylococcus aureus ATCC 25923.
Test [4] has as its system Escherichia coli ATCC 25726.
The test system of test [5] is Batrachochytrium dendrobatidis JEL-197.

Values after ≈ are worked out from the molar mass of the structure shown. Bounds are passed on as bounds.

In the case of `CC[C@H](C)[C@H](NC(=O)[C@H](CCCCN)NC(=O)[C@H](CCCCN)NC(=O)[C@H](CCCCN)NC(=O)[C@H](CC(C)C)NC(=O)[C@H](Cc1ccccc1)NC(=O)[C@H](CCC(N)=O)NC(=O)[C@H](CCCN=C(N)N)NC(=O)[C@@H](NC(=O)[C@@H](NC(=O)[C@H](CCC(=O)O)NC(=O)[C@H](CCCCN)NC(=O)CNC(=O)[C@H](C)N)[C@@H](C)O)[C@@H](C)CC)C(=O)N[C@@H](CCC(N)=O)C(=O)N[C@@H](CCC(=O)O)C(=O)N[C@@H](Cc1c[nH]c2ccccc12)C(=O)N[C@@H](CCCCN)C(=O)N[C@@H](CCCCN)C(=O)N[C@@H](CCCN=C(N)N)C(=O)N[C@@H](C)C(=O)N[C@H](C(=O)N[C@H](C(=O)N[C@@H](C)C(=O)N[C@@H](Cc1c[nH]c2ccccc12)C(=O)O)[C@@H](C)CC)[C@@H](C)O` [AGKETIRQFLKKKIQEWKKRATIAW], the results for the MIC (in test [1]; in the test with Escherichia coli BL21; in test [2]) were 0.5 µM (≈ 1.53 µg/mL), 0.5 µM (≈ 1.53 µg/mL) and 16 µM (≈ 48.9 µg/mL), respectively.
Regarding `CC[C@H](C)[C@@H]1NC(=O)[C@H](CC(C)C)NC(=O)[C@@H](NC(=O)[C@@H](NC(=O)[C@@H](NC(=O)[C@H](CCCCN)NC(=O)[C@@H]2CCCN2C(=O)[C@@H](NC(=O)[C@@H](NC(=O)[C@H](CCCN=C(N)N)NC(=O)[C@H](C)NC(=O)[C@H](C)NC(=O)[C@@H](NC(=O)CNC(=O)[C@H](C)NC(=O)[C@H](CC(C)C)NC(=O)[C@H](CCSC)NC(=O)[C@@H]2CCCN2C(=O)[C@H](Cc2ccccc2)NC(=O)[C@@H](N)Cc2ccccc2)C(C)C)C(C)C)C(C)C)C(C)C)[C@@H](C)CC)CSSC[C@@H](C(=O)O)NC(=O)[C@H](CCCCN)NC(=O)[C@H](CCCCN)NC(=O)[C@H]([C@@H](C)O)NC1=O` [FFPMLAGVAARVVPKVICLITKKC], the MIC in test [3] was 12.5 µM (≈ 32.5 µg/mL); in test [4] it was at least 50 µM; in test [5], 6.25 µM (≈ 16.3 µg/mL).
In the case of `CC[C@H](C)[C@H](NC(=O)[C@H](CCCCN)NC(=O)CNC(=O)[C@H](Cc1ccccc1)NC(=O)[C@H](CCCCN)NC(=O)[C@H](CCCN=C(N)N)NC(=O)[C@H](CC(C)C)NC(=O)[C@H](Cc1ccc(O)cc1)NC(=O)[C@H](CCC(=O)O)NC(=O)[C@H](CC(C)C)NC(=O)[C@H](CC(C)C)NC(=O)[C@H](CCC(=O)O)NC(=O)[C@H](CCCCN)NC(=O)[C@@H](NC(=O)[C@H](CC(C)C)NC(=O)[C@H](CCCN=C(N)N)NC(=O)[C@H](CC(N)=O)NC(=O)[C@H](C)NC(=O)[C@H](CCCCN)NC(=O)[C@H](C)N)[C@@H](C)O)C(=O)N[C@@H](C)C(=O)N[C@@H](CCCN=C(N)N)C(=O)N[C@@H](CCCCN)C(=O)N[C@@H](C)C(=O)N[C@@H](Cc1c[nH]c2ccccc12)C(=O)O` [AKANRLTKELLEYLRKFGKIARKAW], the MIC in test [1] stood at 4 µM (≈ 12 µg/mL); against Escherichia coli BL21, 2 µM (≈ 6.01 µg/mL); in test [2] it was 16 µM (≈ 48.1 µg/mL).
The matching figures for `CC[C@H](C)[C@H](NC(=O)[C@H](Cc1ccccc1)NC(=O)[C@H](C)NC(=O)[C@H](CCCCN)NC(=O)[C@H](CCCCN)NC(=O)CNC(=O)[C@H](CCCN=C(N)N)NC(=O)[C@H](CCCCN)NC(=O)[C@H](CCCN=C(N)N)NC(=O)[C@H](CC(C)C)NC(=O)[C@H](CCC(=O)O)NC(=O)[C@H](CCC(=O)O)NC(=O)[C@H](CCCCN)NC(=O)[C@H](CC(C)C)NC(=O)[C@H](Cc1ccc(O)cc1)NC(=O)[C@H](CC(C)C)NC(=O)[C@@H](NC(=O)[C@H](CC(C)C)NC(=O)[C@H](C)NC(=O)[C@H](CCC(N)=O)NC(=O)[C@H](CCCN=C(N)N)NC(=O)CNC(=O)[C@H](C)N)[C@@H](C)O)C(=O)N[C@@H](Cc1c[nH]c2ccccc12)C(=O)N[C@@H](Cc1c[nH]c2ccccc12)C(=O)O` [AGRQALTLYLKEELRKRGKKAFIWW]: 4 µM (≈ 12.3 µg/mL), 16 µM (≈ 49 µg/mL) and over 128 µM.

As a reminder, the MIC is the lowest concentration that inhibits growth of the organism.

These data come from DBAASP.
